Test results: patent US9642854B2, “Flavanoid compounds and process for preparation thereof” (Council of Scientific & Industrial Research, priority 2009, dated 2017)
Values after ≈ are worked out from the molar mass of the structure shown. “Also recorded” adds a separate entry of the source.

How the values were obtained:
[1] = test system: H. pylori clinical strain HP001; test: Acridine orange fluorescence microscopy of morphological transformation; format: cell-based, Helicobacter pylori; settings: 24 h
Procedure: Acridine orange fluorescence microscopic evidence is provided. The details of experimental procedures are provided under Experiment 9.
For the purpose of fluorescence staining, a bacterial smear was prepared, fixed with methanol for 2 min, stained with 0.1% acridine orange solution for 2-3 min, rinsed thoroughly with distilled water (Haqqani, 2001) and observed under fluorescence microscopy using 1-3 filter (emission wavelength 510 nm). The live organism appeared as orange color in the dark background and the non-viable cells as green (Shirai et al., 2000).

[2] = test system: Swiss albino mice; test: Acute toxicity evaluation in mice; format: in vivo; settings: up to 0.5 g/kg body weight orally, 15 days observation
Source text: Five animals of Swiss albino mice strain were used for this purpose. The dosage up to 0.5 g/kg body weight given orally per mice and the animals were kept for 15 days under observation. It was observed that the mice were not affected at the dose level of 0.5 g/kg body weight of CPP-1.

[3] = test system: H. pylori ATCC 43504; test: Short time kill kinetics in shake culture at different pH; format: cell-based, Helicobacter pylori
[4] = test system: H. pylori; test: Acid stability study (pH ~2.0, 2 h, then MIC/MBC by microbroth dilution); format: cell-based, Helicobacter pylori; settings: for MBC / MIC: Helicobacter pylori
Procedure: Details of experimental protocol are described under Experiment 7. MIC/MBC values were determined by microbroth dilution assay.
A 100 μL stock of CPP-1, NMC-1, NMC-2 and CPP-3 (1-2 mg/mL) was treated with 20-30 μL of 0.12 NHCl to bring the pH of the solution to ^˜2.0, and kept at 25° C. for 2 h (Funatogawa et al., 2004). Such acid-treated samples were then serially diluted (2 fold) with medium in 96-well microtitre plates to determine the MIC and the MBC values by microbroth dilution assay as detailed under Experiment 3.

[5] = test system: H. pylori; test: Anti H. pylori screening by disc diffusion susceptibility assay; format: cell-based, Helicobacter pylori; settings: 72 h; for Inhibition zone diameter (score): 100 and 200 mg/disc (so in the source)
How it was run: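 Clinical strains HP001, HP002 and ATCC 700392, 43504, 49503 (10^8 CFU/mL) spread on supplemented BHI agar; 5 mm discs loaded with 100 and 200 […] compound in ethanol or DMSO. Zones read after 72 h microaerophilic growth at 37 °C; scored + (10-20 mm), ++ (20-30 mm), +++ (>30 mm), Nil <10 mm.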

[6] = test system: H. pylori ATCC 43504; test: Transmission electron microscopy of morphological transformation; format: cell-based, Helicobacter pylori; settings: 24 h
Source text: The morphological alteration of H. pylori cells (ATCC® 43504) exposed to various concentrations of CPP-1 was further examined using transmission electron microscopy (Dai et al., 2005). […] Samples were dehydrated, embedded in SPUR, sections cut and applied to copper grids. The grids were contrasted with uranyl acetate and lead citrate and the sections were examined on a transmission electron microscope.

[7] = test system: H. pylori; test: MIC and MBC by microbroth dilution assay; format: cell-based, Helicobacter pylori; settings: for MBC / MIC: Helicobacter pylori
Procedure: The compounds, serially diluted ([…]) in Muller Hinton broth containing 5% FCS, were incubated in 96-well microtitre plate containing fresh cultures of HP001 (˜5.5×10^6 CFU/mL) or ATCC® 43504 (2.65×10^6 CFU/ml) in a final volume of […]. After 72-h of incubation under microaerophilic condition at 37° C., […] of cultures wherein no growth had been detected were streaked on fresh brain heart infusion agar plates for MBC determination.
In microbroth dilution assay employing one clinical and one standard strain, both the bacteriostatic and the bactericidal values were determined for all four compounds as well as for clarithromycin (Table 4). Two-fold serial dilutions were prepared in 96-well microtitre plate containing a total volume of 0.1 mL Mueller Hinton broth supplemented with 5% FCS. A 3-day old liquid culture was diluted 10 times in Mueller Hinton broth and 0.1 mL of these cultures was inoculated into each well to give a final concentration of ˜10^6 CFU/mL. The plates were incubated for 3 days in a microaerophilic atmosphere at 37° C. Following incubation, the plates were examined visually, and the lowest concentration showing complete inhibition of growth was recorded as the MIC of the respective compound (Hachem et al., 1996). Aliquots (0.1 mL) of 72-h culture in which no growth had been detected were taken from the wells of the above microtitre plates and used to streak on fresh BHI agar plates.

[8] = ATCC43504, microbroth dilution, ATCC 43504

O=c1cc(-c2ccccc2)oc2cc(OCCCCCCN3CCCCC3)cc(O)c12 [CPP-1, 5-Hydroxy-2-phenyl-7-(6-piperidin-1-yl-hexyloxy)-chromen-4-one]
morphological alteration (fluorescence microscopy) ([1]; 3.125 mg/mL (so in the source)): resembled almost like control with some deformation
morphological alteration (fluorescence microscopy) ([1]; 6.25 and […] (so in the source)): progressively deteriorating cell population leading to more of non-viable cells (green fluorescence) and coccid formation
mortality [2]: did not show any mortality; also recorded: No mortality and behavioral abnormality was noted
decrease of growth ([3]; 50 mg/mL (so in the source), pH 4.0, 5.0 and 6.0, short exposure): 3 log
survival of bacteria ([3]; 50 mg/mL (so in the source), pH 7.2): the bacteria survived
rate of killing as function of pH ([3]; 100 and 150 mg/mL (so in the source)): the rate of killing was found to increase as the pH of the media raised
MBC ([4]; 2 h, pH ~2.0, 2 h, 25° C., 43504, read-out: MBC, Acid treated): 25000 µg/mL (≈ 59.3 mM)
MIC ([4]; 2 h, pH ~2.0, 2 h, 25° C., 43504, read-out: MIC, Acid treated): 12500 µg/mL (≈ 29.7 mM)
MBC ([4]; 2 h, pH ~2.0, 2 h, 25° C., HP001, read-out: MBC, Acid treated): < 12500 µg/mL
MIC ([4]; 2 h, pH ~2.0, 2 h, 25° C., HP001, read-out: MIC, Acid treated): 12500 µg/mL (≈ 29.7 mM)
MBC ([4]; not acid treated, 43504, read-out: MBC, Control): < 6250 µg/mL
MIC ([4]; not acid treated, 43504, read-out: MIC, Control): 6250 µg/mL (≈ 14.8 mM)
MBC ([4]; not acid treated, HP001, read-out: MBC, Control): 12500 µg/mL (≈ 29.7 mM)
MIC ([4]; not acid treated, HP001, read-out: MIC, Control): 6250 µg/mL (≈ 14.8 mM)
increase in MIC and MBC values upon exposure to acid ([4]; pH 2.0 for 2 hours): about 2 fold
Inhibition zone diameter (score) ([5]; ATCC standard strain 43504): ++ (20-30 mm as ^++)
Inhibition zone diameter (score) ([5]; ATCC standard strain 49503): +++ (that of >30 mm as ^+++)
Inhibition zone diameter (score) ([5]; ATCC standard strain 700392): ++ (20-30 mm as ^++)
zone of inhibition at 100 µg/disc ([5]; Helicobacter pylori, 100 and 200 μg/disc, majority of the strains, read-out: Activity class by inhibition zone diameter): > 30 mm
Inhibition zone diameter (score) ([5]; clinical strain HP001): ++ (20-30 mm as ^++)
Inhibition zone diameter (score) ([5]; clinical strain HP002): +++ (that of >30 mm as ^+++)
morphological alteration (transmission electron microscope) ([6]; 6.25 μg/mL): only few bacteria with intact shape and structure
morphological alteration (transmission electron micrographs) ([6]; 6.25 or […]): induced swelling and vacuole like structures in the cytoplasm of H. pylori cells
morphological alteration (transmission electron microscope) ([6]; […]): most cells were found to be progressively swollen and destroyed
MBC [7, 8]: ~6.25 µg/mL (≈ 0.0148 mM)
MIC [7, 8]: ~6.25 µg/mL (≈ 0.0148 mM)
MBC ([7]; microbroth dilution, HP001): 12.5 µg/mL (≈ 0.0297 mM)
MIC ([7]; microbroth dilution, HP001): 6.25 µg/mL (≈ 0.0148 mM)
MBC ([7]; range over strains): 6.25 to 12.5 µg/mL (≈ 0.0148 to 0.0297 mM)
MIC/MBC dose range ([7]; dose range at which irreversible morphological deformation is induced): 6.25 to 12.5 µg/mL
